Columns and labels:
[1] = Thermodynamic relationship between Form 1 and Form 2 calculated from DSC melting data (method of Lian Yu); assay type: physicochemical; details: for transition temperature: Form 2 T=110.35° C., ΔH=83.43 J/g; for thermodynamic relationship between the polymorphs (monotropic or enantiotropic): based on DSC data
Description: For a polymorphic substance, a property of particular interest is the relative thermodynamic stability of the polymorphs. The questions to be answered are the following:
b) for an enantiotropic system, where (Tt) lies.
The thermodynamic relationship between Form 1 and Form 2 of compound of Formula (I) was calculated using the melting data of polymorphs measured by DSC, according to what disclosed in: Lian Yu, Journal of Pharmaceutical Science, Vol. 84, No. 8, August 1995.
Taking samples of Form 1 and Form 2 as pure forms 1 and 2 respectively, and using the melting point and the ΔH obtainable by DSC data, it was possible to calculate the thermodynamic relationship and the transition temperature.
The above calculation has been performed using DSC data for a different sample of polymorph Form 1 of compound of Formula (I), showing the Differential Scanning Calorimetry (DSC) thermogram of FIG. 7, obtained by the same method discussed above.

[2] = Slurry conversion of a mixture of the two polymorphs, solid examined by XRPD; assay type: physicochemical; details: 20.4 mg Form 1 + 21.3 mg Form 2 in saturated ethyl acetate/heptane=1/2 solution of Form 1, stirred at RT one day
Description: A saturated solution in ethyl acetate/heptane=½ of Form 1 of compound of Formula (I) (25 mg in 400 μL) was prepared.
20.4 mg of solid Form 1 of compound of Formula (I) were mixed with 21.3 mg of solid Form 2 of compound of Formula (I). That solid mixture was added to the above saturated solution. The slurry so obtained was stirred at RT one day long. The day after, the solid and liquid phase were separated by centrifugation, and the solid was simply left on air in order to dry and then examined by XPRD.

[3] = Form 1 sample of FIG. 6 (T=102.44° C., ΔH=71.18 J/g)
[4] = Form 1 sample of FIG. 7 (T=100.09° C., ΔH=75.46 J/g)

In the case of `CC[C@H](Nc1cc(C)nc2c(-c3ccc(OC)cc3C)c(C)nn12)c1nc(C)no1` [Form 2, [3-(4-methoxy-2-methyl-phenyl)-2,5-dimethyl-pyrazolo[1,5-a]pyrimidin-7-yl]-[(S)-1-(3-methyl-[1,2,4]oxadiazol-5-yl)-propyl]-amine], the transition temperature [1, 3] is reported as 177 °C, the transition temperature [1, 4] is reported as 356 °C and the “thermodynamic relationship between the polymorphs (monotropic or enantiotropic)” value [1] is reported as “monotropic relationship”. For the same compound, the “solid form after slurrying a mixture of Form 1 and Form 2” value [2] was “the solid was only constituted by Form 2”.

With `CC[C@H](Nc1cc(C)nc2c(-c3ccc(OC)cc3C)c(C)nn12)c1nc(C)no1` [Form 1, [3-(4-Methoxy-2-methyl-phenyl)-2,5-dimethyl-pyrazolo[1,5-a]pyrimidin-7-yl]-[(S)-1-(3-methyl-[1,2,4]oxadiazol-5-yl)-propyl]-amine] the transition temperature [1, 3] was 177 °C, the transition temperature [1, 4] was 356 °C and the “thermodynamic relationship between the polymorphs (monotropic or enantiotropic)” value [1] was “monotropic relationship”.

Source: patent publication US8088779B2, “Pyrazolo [1,5-alpha] pyrimidinyl derivatives useful as corticotropin-releasing factor (CRF) receptor antagonists” (SmithKline Beecham (Cork) Limited, priority 2005, dated 2012)
